The source of these data is article PMC9388626, “STUB1 is an intracellular checkpoint for interferon gamma sensing” (Scientific Reports, 2022).

Assay [1] concerns A375 cells. Kind of assay: Flow cytometry, surface IFNGR1, mCherry2-peptide stable cells. In kind it is cell-based. The following applies: A375, stable expression; untreated or human IFNγ 0.01 ng ml^−1, 24 h. The text has this: (§1) To generate the plasmids, gBlocks gene fragments (IDT) encoding the inhibitory biologic (FLAG-mCherry2-GGSGGS-SIWWPD) and the control biologic (FLAG-mCherry2-GGSGGS-SIWWHR) were cloned into pEF6 vector (Thermo Fisher Scientific) by standard restriction enzyme digestion and T4 DNA ligation. The final constructs were verified by Sanger sequencing. Coding sequences of the constructs are provided in Supplementary Table S5. To generate the stable cell lines, a total of 2 × 10^5 B16-F10, A375 or A549 cells were electroporated with 200 ng plasmid using DJ-110, FF-120 or CM-130 respectively—the preset programmed in 4D-nucleofector system (Lonza). The preparation of the cell suspension and the process of the electroporation are similar to that described in the CRISPR method section. The stable cell lines were selected using 10 µg ml^−1 blasticidin three days post-electroporation and were maintained in 5 µg ml^−1 blasticidin once the stable colonies were established. […]
(§2) Cells were dissociated from the wells with 0.25% trypsin (Gibco, 25200056). […] Cells were analyzed on LSRFortessa X-20 (BD Biosciences) with appropiate fluorescence compensation. The data were analyzed using FlowJo. […]
(A flow cytometer gives signals particle by particle.)

Assay [2] deals with A549 cells. The assay is described as above. It is filed as cell-based. As to conditions: A549, stable expression; untreated or human IFNγ 0.01 ng ml^−1, 24 h.
Source text: as §1, §2

Assay [3] concerns A375 cells. In words: Flow cytometry, surface MHC-I, mCherry2-peptide stable cells. It is filed as cell-based. The following applies: A375, stable expression; human IFNγ 0.01 ng ml^−1, 24 h.
Source text: as §1, §2

The test system of assay [4] is A549 cells. Described as above. It is filed as cell-based. The following applies: A549, stable expression; human IFNγ 0.01 ng ml^−1, 24 h.
Source text: as §1, §2

The test system of a further assay is B16-F10 cells. In words: Flow cytometry, surface IFNGR1, mCherry2-peptide stable cells. In kind it is cell-based, murine. The following applies: stable expression; resting and IFNγ-stimulated (mouse IFNγ 0.03 ng ml^−1, 24 h).
Source text: as §1, §2

In the next assay the test system is STUB1. In words: Co-immunoprecipitation of FLAG-mCherry2-peptide and STUB1. As to conditions: B16-F10 lysate, anti-FLAG. It is filed as binding, murine. The protocol:
B16-F10 cells stably expressing the biologic were harvested, rinsed with PBS, and lysed with chilled cell lysis buffer (Cell Signaling Technology, #9803) supplemented with Halt protease inhibitor cocktail (Life Technologies, #78430) and phosphatase inhibitor (Sigma-Aldrich, # 4906837001). Cellular lysates were clarified by centrifugation at 15,000 rpm at 4 °C for 15 min. Protein concentration was determined using BCA protein assay kit (Pierce, #23225). For each sample of the co-immunoprecipitation (co-IP), 20 µl of anti-FLAG magnetic beads (Sigma-Aldrich, M8823) was rinsed twice with 0.2 ml PBS, followed by addition of 500 µl diluted cellular lysate (60 µg, 0.12 µg µl^−1). For competitive inhibition, synthetic peptide (SIWWPD) was added into the co-IP mixture. The resulting mixture was rotated at room temperature for 4 h, after which the beads were rinsed with 3 × 0.5 ml PBS to remove the unbound proteins. Bound protein complexes were directly eluted with a 20 µl solution of LDS sample buffer (Life Technologies, NP0008) supplemented with sample reducing agent (Life Technologies, NP0009), followed by heating at 70 °C for 10 min. […] Blotting was similar to the Western Blot section described above. Primary antibodies used were: STUB1/CHIP (Cell Signaling Technology, #2080, 1:1000 dilution), FLAG (Sigma-Aldrich, F1804, 1:1000 dilution). […]

A further assay deals with DU145 cells. Kind of assay: Growth inhibition, CellTiter-Fluor (live-cell protease activity). As to conditions: 10 ng ml-1 each, 6-day. On the set-up: scale not given here. It is filed as cell-based, human. As for the experimental part: (§3) Parental and CRISPR-edited tumour cells were seeded in a cell density of 1800 (DU145), 2000 (PC-3), or 10,000 (MCF7) per well in 96-well CellCarrier plate (PelkinElmer, #6005550) filled with 50 µl culture media + 10% FBS. After 20–24 h incubation, the cells were treated with 10 ng ml^−1 of recombinant human IFNγ (R&D Systems, 285-IF-100), 10 ng ml^−1 of recombinant human TNFα (R&D Systems, 210-TA-020/CF) or a combination of both, by adding an equal volume of the complete culture media containing the cytokines. After incubating for 6 days without media change, the CellTiter-Glo 2.0 (Promega, G9243) or CellTiter-Fluor (Promega, G6082) assay were performed according to manufacturer’ instructions. The luminescence or fluorescence (Ex: 380–400 nm, Em: 505 nm) were detected by Inifinte M1000 PRO (Tecan). For CellTiter-Fluor, triplicate wells without cells were included to determine background fluorescence and the signal average was used for background substraction.

The subject of assay [5] is MCF7 cells. Described as above. In kind it is cell-based, human. Also on record: scale not given here. The following applies: 10 ng ml-1 each, 6-day. The protocol:
as §3

The next assay has as its system PC-3 cells. The assay is described as above. It is filed as cell-based, human. On the set-up: scale not given here. As to conditions: 10 ng ml-1 each, 6-day. As for the experimental part:
as §3

The subject of assay [6] is MCF7 cells. In words: Growth inhibition, CellTiter-Glo 2.0 (ATP). It is filed as cell-based, human. As to conditions: MCF7, 10 ng ml^−1, 6 days. As for the experimental part: as §3
(In general: Cellular ATP, detected with luciferase, serves as a proxy for viable cell number.)

Turning to mCherry2-SIWWPD, the “Cell surface IFNGR1” value is “also resulted in the same phenotype” in the assay on A375 cells [1]; “also resulted in the same phenotype” in the assay on A549 cells [2]; “upregulation of IFNGR1 on the cell surface of B16-F10, under both resting and IFNγ-stimulating conditions” in the assay on B16-F10 cells. Further, the “Cell surface MHC-I” value with A375 cells [3] and in the assay on A549 cells [4] was “boost the surface levels of MHC-I in response to IFNγ” each time. Also, the “Co-precipitation of STUB1” value in the assay with STUB1 is given as “STUB1 was co-precipitated”.

As to TNFα, the “FC in live-cell protease activity relative to parental cells” value with DU145 cells (DU145 PTPN2 sgRNA, replicate 1) is on record as 0.07; with DU145 cells (DU145 PTPN2 sgRNA, replicate 2), 0.13; in the assay on DU145 cells (DU145 PTPN2 sgRNA, replicate 3) it was -0.00707; in the assay on DU145 cells (DU145 Parental, replicate 1) it was -0.0322; in the assay with DU145 cells (DU145 Parental, replicate 2), 0.08; with DU145 cells (DU145 Parental, replicate 3), -0.05. Further, the “FC in live-cell protease activity relative to parental cells” value in the assay with DU145 cells (DU145 STUB1 sgRNA, replicate 1) was 0.0056; in the assay with DU145 cells (DU145 STUB1 sgRNA, replicate 2), 0.0106; in the assay with DU145 cells (DU145 STUB1 sgRNA, replicate 3), 0.16; in the assay on DU145 cells (DU145 control sgRNA, replicate 1) it was -0.0256; in the assay on DU145 cells (DU145 control sgRNA, replicate 2) it was -0.00666; with DU145 cells (DU145 control sgRNA, replicate 3) it was -0.0248. In addition, the “FC in live-cell protease activity relative to parental cells” value with MCF7 cells [5] (MCF7 PTPN2 sgRNA, replicate 1) is on record as -0.29; in the assay with MCF7 cells [5] (MCF7 PTPN2 sgRNA, replicate 2), -0.31; in the assay with MCF7 cells [5] (MCF7 PTPN2 sgRNA, replicate 3) it was -0.32; in the assay with MCF7 cells [5] (MCF7 Parental, replicate 1), 0.00519; in the assay on MCF7 cells [5] (MCF7 Parental, replicate 2), -0.01; in the assay on MCF7 cells [5] (MCF7 Parental, replicate 3), 0.00479. For the same substance, the “FC in live-cell protease activity relative to parental cells” value in the assay with MCF7 cells [5] (MCF7 STUB1 sgRNA, replicate 1) is given as -0.18; in the assay with MCF7 cells [5] (MCF7 STUB1 sgRNA, replicate 2), -0.39; with MCF7 cells [5] (MCF7 STUB1 sgRNA, replicate 3) it was -0.36; in the assay on MCF7 cells [5] (MCF7 control sgRNA, replicate 1), -0.14; in the assay with MCF7 cells [5] (MCF7 control sgRNA, replicate 2), -0.16; with MCF7 cells [5] (MCF7 control sgRNA, replicate 3), -0.18. The “FC in live-cell protease activity relative to parental cells” value with PC-3 cells (PC-3 PTPN2 sgRNA, replicate 1) was 0.08; in the assay with PC-3 cells (PC-3 PTPN2 sgRNA, replicate 2), -0.06; in the assay with PC-3 cells (PC-3 PTPN2 sgRNA, replicate 3), 0.13; with PC-3 cells (PC-3 Parental, replicate 1), 0.11; in the assay on PC-3 cells (PC-3 Parental, replicate 2), -0.05; with PC-3 cells (PC-3 Parental, replicate 3) it was -0.07. Further, the “FC in live-cell protease activity relative to parental cells” value is 0.20 with PC-3 cells (PC-3 STUB1 sgRNA, replicate 1); 0.00375 in the assay on PC-3 cells (PC-3 STUB1 sgRNA, replicate 2); -0.0246 in the assay on PC-3 cells (PC-3 STUB1 sgRNA, replicate 3); 0.19 in the assay on PC-3 cells (PC-3 control sgRNA, replicate 1); 0.026 in the assay on PC-3 cells (PC-3 control sgRNA, replicate 2); -0.06 in the assay with PC-3 cells (PC-3 control sgRNA, replicate 3). Besides, in the assay on MCF7 cells [6], the “Growth inhibition of PTPN2- or STUB1-null cells” value is given as “could sensitize MCF7 breast tumour cell”.
